Results taken from PubChem BioAssay AID686967 (The Scripps Research Institute Molecular Screening Center, 2013).
Calls of active or inactive are those of the source. No rule for the calls is given here.

Each compound was assayed against methionyl-tRNA synthetase (Trypanosoma brucei brucei) (assay: T. brucei MetRS inhibitors, late-stage follow-up, biochemical, luminescence, dose response (AID 686967)). Details: recombinant T. brucei MetRS, luminescence (ATP depletion).

Row | SMILES | IC50
1 | O=C(C[C@H]1C(=O)N(Cc2ccccc2)C[C@@H]1c1ccc(Br)cc1)Nc1ccc(Br)cc1 | 1.95 µM
2 | O=C(N/C(=C\c1cccnc1)c1nc2ccccc2[nH]1)c1cccc(Br)c1 | 3.2 µM
3 | O=C(Cn1cnc2ccccc21)Nc1cccc([N+](=O)[O-])c1 | 1.3 µM
4 | O=C(CCC(=O)Nc1cccc([N+](=O)[O-])c1)NN=Cc1cccs1 | 3.56 µM
5 | O=C(NCc1nc2ccccc2[nH]1)C1=C[C@H](c2ccc(Br)cc2)C[C@H](OCCCCO)O1 | 1.58 µM
6 | COc1ccc(OCC(O)CNC(=O)Nc2ccc(Cl)cc2)cc1 (centres undefined) | 5.54 µM
7 | CCOC(=O)N1CCC(Nc2c(Nc3ccc(F)cc3)c(=O)c2=O)CC1 | 6.35 µM
8 | O=C(Nc1ccc(F)c(Cl)c1)C1CC(=O)n2c(nc3ccccc32)N1 (centres undefined) | 1.59 µM
9 | Cc1[nH]c2ccc(Br)cc2c(=O)c1CN1CCCCCC1 | 4.21 µM
10 | O=C(CC(=O)Nc1cccc(Cl)c1)NN=Cc1ccccc1 | 3.07 µM
11 | Brc1cnc2nc(SCc3nc4ccccc4[nH]3)[nH]c2c1 | 2.41 µM
12 | O=C1CC(SCc2nc3ccccc3[nH]2)C(=O)N1c1cccc(Cl)c1 (centres undefined) | inactive
13 | Cc1ccc(NC(=O)CN(C)C(=O)CCSc2ccc(F)cc2)cc1 | 3.47 µM
14 | O=C(NCc1nc2ccccc2[nH]1)C1=C[C@@H](C2CC2)C[C@@H](OCc2ccc(CO)cc2)O1 | 1.5 µM
15 | O=C(CC=NOCc1ccc([N+](=O)[O-])cc1)Nc1ccc(Br)cc1 | 1.43 µM
16 | CCO[C@@H]1OC(C(=O)NCc2nc3ccccc3[nH]2)=C[C@H](c2ccc(Br)cc2)[C@H]1CCCO | inactive
17 | O=C(NCc1nc2ccccc2[nH]1)C1=C[C@H](c2ccc(Br)cc2)C[C@H](OCc2ccc(CO)cc2)O1 | 2.4 µM
18 | CC(C)(C)[C@@H]1C=C(C(=O)NCc2nc3ccccc3[nH]2)O[C@H](OCc2ccc(CO)cc2)C1 | 3.39 µM
19 | O=C(NCc1nc2ccccc2[nH]1)C1=C[C@@H](c2ccccc2)C[C@@H](OCc2ccc(CO)cc2)O1 | 1.58 µM
20 | O=C(NNC(=O)c1ccc(-n2cncn2)c([N+](=O)[O-])c1)c1ccc(Cl)cc1 | 2.85 µM
21 | O=C(NCc1nc2ccccc2[nH]1)C1=C[C@H](c2ccccc2)C[C@H](OCc2ccc(CO)cc2)O1 | 6.86 µM
22 | CC(C)(C)[C@H]1C=C(C(=O)NCc2nc3ccccc3[nH]2)O[C@@H](OCc2ccc(CO)cc2)C1 | 2.83 µM
23 | O=C(NCc1nc2ccccc2[nH]1)C1=C[C@H](c2ccc3c(c2)OCO3)C[C@H](OCCCCO)O1 | 3.04 µM
24 | CCO[C@H]1OC(C(=O)NCc2nc3ccccc3[nH]2)=C[C@@H](c2ccc(Br)cc2)[C@@H]1CCCO | 6.25 µM
25 | O=C(CN1CCSC1=NCc1ccccc1)c1ccc(Cl)c(Cl)c1 | 2.22 µM
26 | CCCCCCCCCC1NC(C(=O)O)Cc2c1[nH]c1ccccc21 (centres undefined) | 4.11 µM
27 | O=C(NCc1nc2ccccc2[nH]1)C1=C[C@@H](c2csc3ccccc23)C[C@@H](OCCCCO)O1 | 2.33 µM
28 | Clc1ccc(OCCSCc2nc3ccccc3[nH]2)cc1 | 7.54 µM
29 | O=C(NCc1nc2ccccc2[nH]1)C1=C[C@H](C2CC2)C[C@H](OCc2ccc(CO)cc2)O1 | 6.5 µM
30 | COc1ccccc1-n1c(SCC(=O)Nc2ccc(Cl)cc2)nc(O)c(Cc2ccccc2)c1=O | 3.81 µM

Results, then the compound that gave them:

Row | IC50 | SMILES
31 | 0.603 µM | COc1ccc2[nH]c3nc(SCC(=O)Nc4ccc5c(c4)OCO5)nnc3c2c1
32 | 0.586 µM | CN(Cc1cc(Cl)cc(Cl)c1)[C@H]1C[C@H]2c3[nH]c4ccccc4c3CCN2C(=O)[C@H]1CO
33 | 0.474 µM | O=C1[C@@H]2Cc3c([nH]c4ccccc34)C(c3cccc([N+](=O)[O-])c3)N2C(=O)CN1CCCO (some centres undefined)
34 | 0.429 µM | Oc1c(Cl)cc(Cl)cc1CNc1nc2ccccc2[nH]1
35 | 0.338 µM | CN1CC(=O)N2C(c3cccc([N+](=O)[O-])c3)c3[nH]c4ccccc4c3C[C@H]2C1=O (some centres undefined)
36 | 0.6 µM | COc1ccccc1NS(=O)(=O)c1cccc(NC(=O)Nc2ccccc2)c1
37 | 1.1 µM | O=C(NCc1nc2ccccc2[nH]1)C1=C[C@@H](c2ccc3c(c2)OCO3)C[C@@H](OCCCCO)O1
38 | 0.845 µM | CN(CC(=O)Nc1ccc(Cl)cc1)C(=O)c1ccc(-n2cncn2)c([N+](=O)[O-])c1
39 | 0.641 µM | CC(C)OCCCN1CC(=O)N2C(c3cccc([N+](=O)[O-])c3)c3[nH]c4ccccc4c3C[C@H]2C1=O (some centres undefined)
40 | 1.2 µM | O=C(NNC(=O)c1cc(-c2ccc(Cl)c(Cl)c2)nc2ccccc12)Nc1ccccc1
41 | 1.04 µM | CC(=O)c1c[nH]c(C(=O)NCc2cccc(C(F)(F)F)c2)c1
42 | 1.08 µM | O=C(CC=NOCc1ccc([N+](=O)[O-])cc1)Nc1ccc(Cl)cc1
43 | 0.438 µM | O=C1CC(N(CCc2ccccc2)C(=S)Nc2ccccc2)C(=O)N1c1ccc(Br)cc1 (centres undefined)
44 | 0.739 µM | O=C(NCc1nc2ccccc2[nH]1)C1=C[C@H](c2csc3ccccc23)C[C@H](OCCCCO)O1
45 | 0.949 µM | CC(CC(=O)Nc1cccc(Br)c1)=NNC(=O)c1ccc(O)cc1O
46 | 0.147 µM | O=C(NCCc1nc2ccccc2[nH]1)c1ccc(Cl)c([N+](=O)[O-])c1
47 | 0.674 µM | O=C(NCc1nc2ccccc2[nH]1)C1=C[C@@H](c2ccc(Br)cc2)C[C@@H](OCCCCO)O1
48 | 0.0441 µM | COc1cccc(NC(=O)CSc2nnc3c(n2)[nH]c2ccc(C)cc23)c1
49 | 0.755 µM | COc1ccc(CNC(=O)CSc2nnc3c(n2)[nH]c2ccc(F)cc23)cc1
50 | 1.06 µM | O=C(NCc1nc2ccccc2[nH]1)C1=C[C@@H](c2ccc(Br)cc2)C[C@@H](OCc2ccc(CO)cc2)O1
51 | 0.172 µM | O=C(Cn1cc(C(=O)C(=O)N2CCOCC2)c2ccccc21)Nc1cccc(C(F)(F)F)c1
52 | 0.604 µM | Clc1ccc(-c2nnc(SCc3nc4ccccc4[nH]3)o2)c(Cl)c1
53 | 0.297 µM | C[C@H](O)[C@@H]1C(=O)N2CCc3c([nH]c4ccccc34)[C@@H]2C[C@@H]1N(C)Cc1ccc2c(c1)OCO2
54 | 0.577 µM | CC(=O)c1ccc(N2CCN(C(=O)CCCn3c(=O)[nH]c4ccc(Br)cc4c3=O)CC2)cc1
